# PubChem BioAssay AID2765 (Broad Institute, 2010)
# Active and inactive are the calls of the source.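 The calls were made as follows: active = half-maximal concentration for the rise in caspase light signal at or below ten times the top tested dose; inconclusive = flat fit between 30% and 70% activity, or unreliable curve fit; inactive = the rest.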
# Tested on: MEF A1-2A-BIM cells, caspase 3/7 luminescence, 3 h
# Assay: caspase activation in A1-2A-BIM MEF cells, dose response, A1 inhibitor project, cell-based, luminescence, retest (AID 2765)
row,SMILES,EC50
1,Cn1c(SCc2ccccc2)nc(N)c(N=O)c1=O,> 35 µM (inactive)
2,O=C(c1ccco1)N1CCCN(Cc2nc(-c3ccc4c(c3)OCO4)no2)CC1,> 35 µM (inactive)
3,CC(O)[C@H](NC(=O)C1(c2ccccc2)CCN(C(=O)OC(C)(C)C)CC1)C(=O)O (some centres not stated),> 35 µM (inactive)
4,COc1ccc(-c2nc(CN3CCN(C(=O)c4ccco4)CC3)c(C)o2)cc1OC,> 35 µM (inactive)
5,C=CCOc1c(Br)cc(CNc2ccc3[nH]c(=O)[nH]c3c2)cc1OCC,> 35 µM (inactive)
6,Cc1cccc(/C=N/NC(=O)c2cc3c(s2)-c2ccccc2CC3)c1,> 35 µM (inactive)
7,CCNC(=O)/C(C#N)=C/c1c(N2CCN(C)CC2)nc2c(C)cccn2c1=O,> 35 µM (inactive)
8,Cc1cc(C)cc(NC(=O)CCN2CCCC2)c1,> 35 µM (inactive)
9,CCOC(=O)c1cc(CC)sc1NC(=O)C1CC(=O)NN1Cc1ccccc1 (configuration not stated),> 35 µM (inactive)
10,O=C(NCNC(=O)NC1C(=O)NC(=O)N1CO)NC1C(=O)NC(=O)N1CO (configuration not stated),> 35 µM (inactive)
11,COc1cc(/C=C(/C#N)C(=O)NCCc2c[nH]c3ccccc23)ccc1OCc1ccccc1F,> 35 µM (inactive)
12,O=C(COc1ccc(/C=N/NC(=O)c2cc3ccccc3o2)cc1Br)Nc1ccccc1,31.2 µM
13,O=C(CCC(=O)N1CCN(c2ccccc2F)CC1)N1CCN(c2ccccc2)CC1,> 35 µM (inactive)
14,CSc1nnc(-c2cc3c(-c4ccccc4)nn(C)c3s2)n1C,> 35 µM (inactive)
15,NS(=O)(=O)c1ccc(NC(=O)c2ccc3c(c2)CCCC3)cc1,> 35 µM (inactive)
16,O=C(COC(=O)Cc1ccccc1[N+](=O)[O-])NCc1ccc(Cl)cc1,> 35 µM (inactive)
17,CCOC(=O)C1=NOC(COc2ccccc2C=O)C1 (configuration not stated),> 35 µM (inactive)
18,CC1(C(=O)NCC2CC2)C=CC2(CCCCC2)N1C(=O)c1ccccc1 (configuration not stated),> 35 µM (inactive)
19,COC(=O)C1SCC2C(=O)N(Cc3ccc(Cl)cc3)CC(=O)N21 (configuration not stated),> 35 µM (inactive)
20,O=Cc1cccc(OC(=O)c2ccc(Cl)cc2Cl)c1,> 35 µM (inactive)
21,Cc1ccc(S(=O)(=O)N2CCCC2)cc1C(=O)NCc1ccccc1CN1CCCC1,> 35 µM (inactive)
22,Nc1nc(F)nc2c1ncn2[C@@H]1O[C@H](CO)[C@@H](O)[C@H]1O,> 35 µM (inactive)
23,CCOc1ccc(-n2c(SCC(=O)Nc3ccc(Br)cc3)nc3n[nH]c(C)c3c2=N)cc1,21.6 µM
24,O=C(Cn1c(=O)c2cccn2c2cccnc21)N1CCN(c2ccc(Cl)cc2)CC1,> 35 µM (inactive)

row,SMILES,EC50
1,COC(=O)c1ccc(NC(=O)CCN2CCN(c3ccccc3)CC2)cc1,> 35 µM (inactive)
2,CN1CCN(CCNC(=O)Nc2ccc(Cl)cc2)CC1,> 35 µM (inactive)
3,COc1ccc(C[C@H]2NC[C@H](O)[C@H]2OC(C)=O)cc1,> 35 µM (inactive)
4,Cc1ccc(NC(=O)CSc2nc3nc(C)c(Br)cc3[nH]2)cc1F,> 35 µM (inactive)
5,N#CC(C#N)=C1C=CC=CN1/C(=C\c1ccccc1Cl)C(=O)c1ccccc1,7.34 µM
6,Cc1ccc(Sc2ncccc2C(=O)NCc2cc([N+](=O)[O-])ccc2O)cc1C,> 35 µM (inactive)
7,O=C(Nc1nc2c(Br)cc(Br)cc2c(=O)s1)c1ccco1,> 35 µM (inactive)
8,CC(C)CCN(C(=O)Cc1ccc(Cl)c(Cl)c1)c1c(N)n(Cc2ccccc2)c(=O)[nH]c1=O,12 µM
9,CC(C)CC(NC(=O)c1ccc(Cl)cc1)C(=O)OCC(=O)c1ccc2c(c1)NC(=O)CO2 (configuration not stated),5.35 µM
10,O=C(NCc1cccnc1)[C@@H]1CC=C[C@@H]2CCN(Cc3ccccc3)C(=O)[C@@H]21,> 35 µM (inactive)
11,COc1cc(C(=O)Nc2cc3c(cc2N2CCCCC2)n(C)c(=O)n3C)cc(OC)c1OC,> 35 µM (inactive)
12,CC1CC(C)CN(C(=O)CCCn2c(=S)[nH]c3ccccc3c2=O)C1 (configuration not stated),> 35 µM (inactive)
13,C[C@@H]1CN([C@@H](C)CO)C(=O)c2cc(NS(=O)(=O)c3ccc(Cl)cc3)ccc2O[C@H]1CN(C)Cc1ccncc1,> 35 µM (inactive)
14,COc1ccccc1C(=O)Nc1ccnn1C1CCN(Cc2cn(C)c3ccccc23)CC1,> 35 µM (inactive)
15,O=C(C1=C[C@H](c2coc3ccccc3c2=O)C[C@H](OCc2ccc(CO)cc2)O1)N1CCN(Cc2ccccc2)CC1,> 35 µM (inactive)
16,CC(=O)Nc1ccc(NC(=O)C(=O)NCC(c2ccco2)N2CCc3ccccc32)cc1 (configuration not stated),32.5 µM
17,CN(C(=O)CSc1ccncc1)C1CCCN(Cc2ccccc2F)C1 (configuration not stated),> 35 µM (inactive)
18,CCN(CC)S(=O)(=O)c1cc(C(=O)Nc2ccccc2[N+](=O)[O-])ccc1Cl,> 35 µM (inactive)
19,Cc1ccc(OCCC(=O)Nc2ccc(C)c(F)c2)cc1,> 35 µM (inactive)
20,CC(C)[C@H](NS(=O)(=O)c1ccccc1F)C(=O)OCC(=O)Nc1cccc(S(N)(=O)=O)c1,> 35 µM (inactive)
21,COc1ccccc1CCC(=O)Nc1ccc(S(=O)(=O)Nc2nccs2)cc1,> 35 µM (inactive)
22,O=S1(=O)CCOC[C@H](CC2CCCCC2)N1Cc1cccc(Cl)c1,> 35 µM (inactive)
23,COc1ccc(OC)c(CNc2ccc([N+](=O)[O-])cc2C)c1,> 35 µM (inactive)
